# Patent US20240207162A1, “CARGO MOLECULE TRANSDUCTION DOMAIN RMAD1, VARIANT THEREOF, RECOMBINANT CARGO MOLECULE, AND METHOD FOR TRANSDUCING CARGO MOLECULE USING SAME” (REMEDI CO., LTD., priority 2021, published 2024)
# Tested on: RAW264.7 cells
# Assay: Introduction of SOD1 fusion proteins into RAW264.7 cells
# Type: cell-based
# Settings: 0.5 uM, 2 hours
# Description: SOD1, which is widely known as an antioxidant enzyme, was fused with a cell-penetrating peptide, and the cell-penetrating ability and activity maintenance were evaluated using RAW264.7 cells. The recombinant proteins SOD1, SOD1-TAT, and SOD1-RMAD1 were treated at the same concentration of 0.5 uM to RAW264.7 cells for 2 hours.
substance,measurement,value
"SOD1: antioxidant enzyme, recombinant control protein",level of cell penetration,did not penetrate cells
